Experimental findings from patent publication US8889666B2, “Quinolyl pyrrolo pyrimidyl condensed-ring compound and salt thereof” (Taiho Pharmaceutical Co., Ltd., priority 2012, dated 2014) are described below.

Experiment [1] concerns lung adenocarcinoma cell line NCI-H1975 expressing EGFR (T790M/L858R). In words: Growth inhibitory activity, EGFR (T790M/L858R)-expressing cell line. As to conditions: for GI50: Homo sapiens, NCI-H1975, 72 h, three days culture, CellTiter-Glo; for growth-inhibitory activities for EGFR (d746-750)-expressing and EGFR (T790M/L858R)-expressing cells, in words: summary of Table 2, NCI-H1975 and HCC827. The class given is cell-based, human. How it is done: (§1) 1) A lung adenocarcinoma cell line NCI-H1975 expressing EGFR (T790M/L858R), 2) a lung adenocarcinoma cell line HCC827 expressing EGFR (d746-750), and 3) a human epidermoid carcinoma cell line A431 expressing EGFR (WT) were each suspended in the medium recommended by ATCC. The cell suspension was seeded in each well of a 384-well flat microplate or 96-well flat plate, and cultured in an incubator containing 5% carbon dioxide gas at 37° C. for one day. The compound of the present invention and the reference compound were dissolved in DMSO, and then the DMSO solution of each test compound was diluted with DMSO to a concentration 200 times higher than the final concentration. The diluted DMSO solution of the test compound was diluted with the medium used to suspend each cell line, and the diluted solution was added to each well of the cell culture plate so that the final concentration of DMSO was 0.5%. Then, the cells were cultured in an incubator containing 5% carbon dioxide gas at 37° C. for three days. The number of cells was measured at the time of initiation and termination of the culture by using a CellTiter-Glo Assay (produced by Promega) according to a protocol recommended by Promega. The cell growth inhibition rate was calculated by the following formula, and the concentration of the test compound at which the cell growth was inhibited by 50% (GI50 (nM)) was determined. Growth inhibition rate (%)=(C−T)/(C−C0)×100
(§2) T: Luminescence intensity of well to which test compound was added
(§3) C: Luminescence intensity of well to which test compound was not added
(§4) C0: Luminescence intensity of well measured before addition of test compound

Experiment [2] relates to human epidermoid carcinoma cell line A431 expressing EGFR (WT). In words: Growth inhibitory activity, EGFR (WT)-expressing cell line. The format is cell-based. As to conditions: for GI50: Homo sapiens, A-431, 72 h, three days culture, CellTiter-Glo; for growth-inhibitory activities for EGFR (WT)-expressing cells compared with cells expressing mutant EGFRs, in words: summary of Table 2. The procedure: as §1, §2, §3, §4
(In general: ATP-based viability assays read luminescence as a measure of living cells.)

For a further experiment, the target named is T1, EGFR (T790M/L858R) (Homo sapiens, UniProt P00533, L858R/T790M).
T1 construct: purchased Carna Biosciences, Inc
Kind of experiment: EGFR (T790M/L858R) kinase inhibitory activity (in vitro). As to conditions: for IC50: recombinant human protein, ATP 1 μM, 120 minutes; for inhibitory activities for EGFR (L858R), EGFR (d746-750), EGFR (T790M/L858R) and EGFR (d746-750/T790M), in words: summary of Table 1, all four mutant kinases. The class given is biochemical. The procedure: 1) Measurement of EGFR (T790M/L858R) Kinase Inhibitory Activity
The inhibitory activities of the compounds I-1, I-2, I-3, I-4, I-5, I-6, I-7, I-8, and I-9 for EGFR (T790M/L858R) kinase were measured.
The materials were as follows. The substrate peptide was a biotinylated peptide (biotin-EEPLYWSFPAKKK) synthesized by reference to the amino acid sequence of FL-Peptide 22 (a reagent for LabChip® Series; Caliper Life Sciences, Inc.). The EGFR (T790M/L858R) was a purified recombinant human EGFR (T790M/L858R) protein purchased from Carna Biosciences, Inc.
(§5) The measurement method was as follows. The compounds I-1, I-2, I-3, I-4, I-5, I-6, I-7, I-8, and I-9 were each dissolved in dimethylsulfoxide (DMSO), and then each serially diluted with DMSO. Next, the EGFR (T790M/L858R) protein, substrate peptide (final concentration: 250 nM), magnesium chloride (final concentration: 10 mM), manganese chloride (final concentration: 10 mM), ATP (final concentration: 1 μM), and the diluted DMSO solution of each compound (final concentration of DMSO: 2.5%) were added to a kinase reaction buffer (Carna Biosciences, Inc.), and the mixture was incubated at 25° C. for 120 minutes for kinase reaction. EDTA was added thereto to a final concentration of 24 mM to thereby terminate the reaction. Then, a detection solution containing europium (Eu)-labeled anti-phosphorylated tyrosine antibody PT66 (PerkinElmer) and SureLight APC-SA (PerkinElmer) was added, and the resulting mixture was allowed to stand at room temperature for 2 hours or more. Finally, the intensity of fluorescence under the excitation light with a wavelength of 337 nm was measured by a PHERAstar FS (BMG LABTECH) at two wavelengths of 620 nm and 665 nm. The level of phosphorylation of each test sample was calculated from the fluorescence intensity ratio of the two wavelengths in DMSO control and in the test sample, and the compound concentration at which phosphorylation was inhibited by 50% was determined as the IC50 value (nM) of each compound.

The test system of experiment [3] is lung adenocarcinoma cell line HCC827 expressing EGFR (d746-750). In words: Growth inhibitory activity, EGFR (d746-750)-expressing cell line. The class given is cell-based. As to conditions: Homo sapiens, HCC827, 72 h; three days culture, CellTiter-Glo. How it is done: as §1, with “Then, the cells were cultured in an incubator containing 5% carbon dioxide gas at 37° C. for three days.” left out, “The cell growth inhibition rate was calculated by the following formula, and the concentration of the test compound at which the cell growth was inhibited by 50% (GI50 (nM)) was determined. Growth inhibition rate (%)=(C−T)/(C−C0)×100” left out
as §2, §3, §4

Another experiment concerns the target T2, EGFR (d746-750) (Homo sapiens, UniProt P00533, DEL746-750).
T2 construct: purchased Carna Biosciences, Inc
In words: EGFR (d746-750) kinase inhibitory activity (in vitro). As to conditions: recombinant human protein, ATP 5 μM, 90 minutes. The class given is biochemical. How it is done: as §5
4) Measurement of EGFR (d746-750) Kinase Inhibitory Activity
The inhibitory activities of the compounds I-1, I-2, I-3, I-4, I-5, I-6, I-7, I-8, and I-9 for EGFR (d746-750) kinase activity were measured.
The materials were as follows. The EGFR (d746-750) was a purified recombinant human EGFR (d746-750) protein purchased from Carna Biosciences, Inc. The final concentration of ATP was 5 μM. The incubation time for the kinase reaction was 90 minutes. As for other conditions, the same materials and methods as those used in the measurement of EGFR (T790M/L858R) kinase inhibitory activity were used to determine the IC50 value (nM) of each compound.

For the next experiment, the target named is T3, EGFR (L858R) (Homo sapiens, UniProt P00533, L858R).
T3 construct: purchased Carna Biosciences, Inc
Kind of experiment: EGFR (L858R) kinase inhibitory activity (in vitro). As to conditions: recombinant human protein, ATP 4 μM. The format is biochemical. The procedure:
as §5
3) Measurement of EGFR (L858R) Kinase Inhibitory Activity
The inhibitory activities of the compounds I-1, I-2, I-3, I-4, I-5, I-6, I-7, I-8, and I-9 for EGFR (L858R) kinase were measured.
The materials were as follows. The EGFR (L858R) was a purified recombinant human EGFR (L858R) protein purchased from Carna Biosciences, Inc. The final concentration of ATP was 4 μM. As for other conditions, the same materials and methods as those used in the measurement of EGFR (T790M/L858R) kinase inhibitory activity were used to determine the IC50 value (nM) of each compound.

For a further experiment, the target named is T4, EGFR (d746-750/T790M) (Homo sapiens, UniProt P00533, DEL746-750/T790M).
T4 construct: purchased Carna Biosciences, Inc
In words: EGFR (d746-750/T790M) kinase inhibitory activity (in vitro). As to conditions: recombinant human protein, ATP 1.5 μM. The class given is biochemical. How it is done: as §5
2) Measurement of EGFR (d746-750/T790M) Kinase Inhibitory Activity
The inhibitory activities of the compounds I-1, I-2, I-3, I-4, I-5, I-6, I-7, I-8, and I-9 for EGFR (d746-750/T790M) kinase were measured.
The materials were as follows. The EGFR (d746-750/T790M) was a purified recombinant human EGFR (d746-750/T790M) protein purchased from Carna Biosciences, Inc. The final concentration of ATP was 1.5 μM. As for other conditions, the same materials and methods as those used in the measurement of EGFR (T790M/L858R) kinase inhibitory activity were used to determine the IC50 value (nM) of each compound.

The target of a further experiment is T5, EGFR (WT) (Homo sapiens, UniProt P00533).
T5 construct: the cytoplasmic domain of human EGFR (WT); FLAG (N); made in house; host or cells: baculovirus expression system, insect Sf9 cells
In words: EGFR (WT) kinase inhibitory activity (in vitro). The format is biochemical. As to conditions: for IC50: cytoplasmic domain of human EGFR (WT), ATP 4.7 μM, substrate peptide 500 nM; for inhibitory activities for EGFR (WT) compared with the mutant EGFR proteins, in words: summary of Table 1. The procedure:
as §5
The inhibitory activities of the compounds I-1, I-2, I-3, I-4, I-5, I-6, I-7, I-8, and I-9 on EGFR (WT) kinase were measured.
The materials were as follows. As the EGFR (WT), the cytoplasmic domain of human EGFR (WT) in which a FLAG tag was fused to the N-terminus was expressed in a baculovirus expression system using insect Sf9 cells, and purified with anti-FLAG antibody agarose (Sigma-Aldrich). The final concentration of the substrate peptide was 500 nM, and the final concentration of ATP was 4.7 μM. As for other conditions, the same materials and methods as those used in the measurement of EGFR (T790M/L858R) kinase inhibitory activity were used to determine the IC50 value (nM) of each compound.

The structures appear in SMILES notation.

T5 sequence (P00533 669-1210 limits assumed): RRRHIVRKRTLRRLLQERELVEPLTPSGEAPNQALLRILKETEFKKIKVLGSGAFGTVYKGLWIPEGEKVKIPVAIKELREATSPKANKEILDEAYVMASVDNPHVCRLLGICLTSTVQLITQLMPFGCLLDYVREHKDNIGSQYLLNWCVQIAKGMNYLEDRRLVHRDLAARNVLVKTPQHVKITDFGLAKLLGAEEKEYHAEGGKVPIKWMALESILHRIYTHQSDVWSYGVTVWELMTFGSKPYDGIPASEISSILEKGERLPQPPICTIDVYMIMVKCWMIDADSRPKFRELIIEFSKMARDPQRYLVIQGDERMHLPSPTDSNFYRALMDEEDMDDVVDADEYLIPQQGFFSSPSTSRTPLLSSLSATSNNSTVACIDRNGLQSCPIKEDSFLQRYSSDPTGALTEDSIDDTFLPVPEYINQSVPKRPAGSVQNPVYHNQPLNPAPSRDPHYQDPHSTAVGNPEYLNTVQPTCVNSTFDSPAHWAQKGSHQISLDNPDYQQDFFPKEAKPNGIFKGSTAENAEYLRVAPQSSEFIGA
T1 sequence (P00533 25-1210 T790M/L858R): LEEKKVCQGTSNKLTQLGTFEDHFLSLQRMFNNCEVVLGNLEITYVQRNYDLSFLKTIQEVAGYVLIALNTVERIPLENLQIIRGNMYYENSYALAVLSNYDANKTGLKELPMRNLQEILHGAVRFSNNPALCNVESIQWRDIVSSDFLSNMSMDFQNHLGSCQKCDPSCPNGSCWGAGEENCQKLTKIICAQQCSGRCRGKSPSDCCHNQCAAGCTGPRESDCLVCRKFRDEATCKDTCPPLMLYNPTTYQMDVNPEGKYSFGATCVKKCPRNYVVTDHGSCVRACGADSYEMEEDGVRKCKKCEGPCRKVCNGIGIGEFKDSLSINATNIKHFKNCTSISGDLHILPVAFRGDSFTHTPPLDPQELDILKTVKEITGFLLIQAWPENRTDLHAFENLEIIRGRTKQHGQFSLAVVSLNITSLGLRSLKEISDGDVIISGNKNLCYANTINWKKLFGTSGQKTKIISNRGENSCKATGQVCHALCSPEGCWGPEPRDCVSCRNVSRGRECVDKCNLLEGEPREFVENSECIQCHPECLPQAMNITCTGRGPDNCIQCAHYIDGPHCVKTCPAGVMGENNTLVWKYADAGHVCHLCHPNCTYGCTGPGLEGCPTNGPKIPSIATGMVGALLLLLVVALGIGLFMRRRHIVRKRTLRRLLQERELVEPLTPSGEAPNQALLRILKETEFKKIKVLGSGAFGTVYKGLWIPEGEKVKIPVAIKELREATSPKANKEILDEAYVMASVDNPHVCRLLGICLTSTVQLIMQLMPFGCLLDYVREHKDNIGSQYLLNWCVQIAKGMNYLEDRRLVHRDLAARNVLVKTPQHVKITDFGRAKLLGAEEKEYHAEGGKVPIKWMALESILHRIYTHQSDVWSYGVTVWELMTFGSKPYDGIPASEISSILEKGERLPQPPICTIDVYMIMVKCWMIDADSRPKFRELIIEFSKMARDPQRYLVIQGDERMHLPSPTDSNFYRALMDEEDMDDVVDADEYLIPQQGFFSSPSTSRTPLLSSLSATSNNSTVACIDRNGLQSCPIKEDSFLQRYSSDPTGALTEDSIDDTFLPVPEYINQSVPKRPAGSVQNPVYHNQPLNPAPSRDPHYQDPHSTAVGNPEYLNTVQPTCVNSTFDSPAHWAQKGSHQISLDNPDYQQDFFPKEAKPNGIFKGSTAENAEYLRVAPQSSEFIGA
T2 sequence (P00533 with tags, fused parts or gaps DEL746-750 limits assumed): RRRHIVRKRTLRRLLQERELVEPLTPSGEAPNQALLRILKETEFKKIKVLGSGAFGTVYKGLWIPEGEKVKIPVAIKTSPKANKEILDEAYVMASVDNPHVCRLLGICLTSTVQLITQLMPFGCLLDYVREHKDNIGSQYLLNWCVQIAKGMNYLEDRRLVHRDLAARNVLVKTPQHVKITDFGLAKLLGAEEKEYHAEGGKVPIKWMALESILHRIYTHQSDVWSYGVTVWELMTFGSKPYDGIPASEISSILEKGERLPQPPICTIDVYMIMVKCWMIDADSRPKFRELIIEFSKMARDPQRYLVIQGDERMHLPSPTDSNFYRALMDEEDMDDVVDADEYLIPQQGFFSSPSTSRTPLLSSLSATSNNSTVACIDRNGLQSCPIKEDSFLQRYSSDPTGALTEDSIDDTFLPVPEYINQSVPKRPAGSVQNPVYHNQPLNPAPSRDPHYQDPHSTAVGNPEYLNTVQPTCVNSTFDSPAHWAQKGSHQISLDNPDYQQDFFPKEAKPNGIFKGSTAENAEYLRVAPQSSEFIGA
T4 sequence (P00533 with tags, fused parts or gaps DEL746-750/T790M limits assumed): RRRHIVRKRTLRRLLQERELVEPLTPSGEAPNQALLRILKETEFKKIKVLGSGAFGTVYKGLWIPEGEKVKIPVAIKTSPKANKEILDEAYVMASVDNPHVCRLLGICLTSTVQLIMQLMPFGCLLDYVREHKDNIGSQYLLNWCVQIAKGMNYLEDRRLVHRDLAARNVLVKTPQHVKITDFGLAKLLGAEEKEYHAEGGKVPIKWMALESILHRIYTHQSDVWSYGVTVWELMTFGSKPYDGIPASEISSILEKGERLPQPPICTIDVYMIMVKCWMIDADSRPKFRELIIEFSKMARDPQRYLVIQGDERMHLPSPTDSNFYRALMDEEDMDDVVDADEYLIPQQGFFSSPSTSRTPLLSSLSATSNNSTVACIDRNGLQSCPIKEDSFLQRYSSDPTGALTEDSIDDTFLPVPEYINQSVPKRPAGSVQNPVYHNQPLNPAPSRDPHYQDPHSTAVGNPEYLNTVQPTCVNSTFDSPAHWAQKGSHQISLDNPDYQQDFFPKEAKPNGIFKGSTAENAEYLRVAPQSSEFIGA
T3 sequence (P00533 25-1210 L858R): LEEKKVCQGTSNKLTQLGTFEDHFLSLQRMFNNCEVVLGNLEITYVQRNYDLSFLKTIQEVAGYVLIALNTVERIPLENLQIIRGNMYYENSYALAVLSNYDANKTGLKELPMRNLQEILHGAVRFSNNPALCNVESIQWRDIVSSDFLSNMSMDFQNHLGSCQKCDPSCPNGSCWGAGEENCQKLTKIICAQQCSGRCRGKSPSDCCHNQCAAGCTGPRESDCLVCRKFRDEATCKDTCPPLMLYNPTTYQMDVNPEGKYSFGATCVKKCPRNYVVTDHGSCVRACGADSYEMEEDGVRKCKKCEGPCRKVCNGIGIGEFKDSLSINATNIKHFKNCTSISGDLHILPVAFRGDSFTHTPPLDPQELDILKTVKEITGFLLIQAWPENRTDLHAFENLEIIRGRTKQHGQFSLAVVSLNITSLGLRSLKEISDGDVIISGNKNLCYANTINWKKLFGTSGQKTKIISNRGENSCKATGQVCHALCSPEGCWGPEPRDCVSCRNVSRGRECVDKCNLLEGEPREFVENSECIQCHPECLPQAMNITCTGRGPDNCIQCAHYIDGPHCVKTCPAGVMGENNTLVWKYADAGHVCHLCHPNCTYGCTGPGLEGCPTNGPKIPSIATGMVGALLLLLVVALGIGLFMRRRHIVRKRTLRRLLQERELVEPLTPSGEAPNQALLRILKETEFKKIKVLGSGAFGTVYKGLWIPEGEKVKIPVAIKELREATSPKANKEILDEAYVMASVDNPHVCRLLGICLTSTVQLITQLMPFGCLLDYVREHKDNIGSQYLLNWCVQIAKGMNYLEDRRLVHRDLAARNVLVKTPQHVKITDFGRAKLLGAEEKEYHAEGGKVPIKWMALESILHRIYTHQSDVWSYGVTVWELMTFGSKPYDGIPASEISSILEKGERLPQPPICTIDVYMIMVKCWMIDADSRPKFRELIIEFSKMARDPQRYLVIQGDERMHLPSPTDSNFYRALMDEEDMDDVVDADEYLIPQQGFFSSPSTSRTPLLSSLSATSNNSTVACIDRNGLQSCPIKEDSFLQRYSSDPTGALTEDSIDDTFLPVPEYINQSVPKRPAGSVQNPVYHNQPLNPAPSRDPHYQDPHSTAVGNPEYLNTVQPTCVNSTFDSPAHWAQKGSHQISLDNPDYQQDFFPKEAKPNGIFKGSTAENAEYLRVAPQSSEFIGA

In the case of `C=CC(=O)N[C@H]1CCc2c(-c3cnc4ccccc4c3)c3c(N)ncnc3n2C1` (single isomer, unassigned) [Compound I-2], the GI50 in experiment [1] came to 27 nM; in experiment [2], 590 nM; in experiment [3] it was 5 nM. Also, in experiment [1], the “growth-inhibitory activities for EGFR (d746-750)-expressing and EGFR (T790M/L858R)-expressing cells, in words” value is listed as “potent growth-inhibitory activities”. Further, in experiment [2], the “growth-inhibitory activities for EGFR (WT)-expressing cells compared with cells expressing mutant EGFRs, in words” value was “weaker growth-inhibitory activities”. Also, the IC50 on EGFR (T790M/L858R) was 0.3 nM; at EGFR (d746-750), 0.4 nM; on EGFR (L858R) it was 0.4 nM; at EGFR (d746-750/T790M), 0.2 nM; on EGFR (WT) it was 4.3 nM. For the same compound, on EGFR (T790M/L858R), the “inhibitory activities for EGFR (L858R), EGFR (d746-750), EGFR (T790M/L858R) and EGFR (d746-750/T790M), in words” value is given as “potent inhibitory activities”. For the same compound, the “inhibitory activities for EGFR (WT) compared with the mutant EGFR proteins, in words” value on EGFR (WT) was “lower than those for the above mutant EGFR proteins”.

On to `C=CC(=O)N(C)C1CCc2c(-c3cnc4ccccc4c3)c3c(N)ncnc3n2C1` (stereo not drawn) [Compound I-3, N-(4-amino-5-(quinolin-3-yl)-6,7,8,9-tetrahydropyrimido[5,4-b]indolizin-8-yl)-N-methylacrylamide], for which the GI50 is 86 nM in experiment [1], 1800 nM in experiment [2] and 10 nM in experiment [3]. In experiment [1], the “growth-inhibitory activities for EGFR (d746-750)-expressing and EGFR (T790M/L858R)-expressing cells, in words” value was “potent growth-inhibitory activities”. Also, in experiment [2], the “growth-inhibitory activities for EGFR (WT)-expressing cells compared with cells expressing mutant EGFRs, in words” value was “weaker growth-inhibitory activities”. The IC50 at EGFR (T790M/L858R) is 1.3 nM; on EGFR (d746-750) it was 1 nM; at EGFR (L858R), 1.3 nM; on EGFR (d746-750/T790M), 0.6 nM; against EGFR (WT) it was 18 nM. Moreover, at EGFR (T790M/L858R), the “inhibitory activities for EGFR (L858R), EGFR (d746-750), EGFR (T790M/L858R) and EGFR (d746-750/T790M), in words” value was “potent inhibitory activities”. Further, the “inhibitory activities for EGFR (WT) compared with the mutant EGFR proteins, in words” value at EGFR (WT) is “lower than those for the above mutant EGFR proteins”.

The term GI50 denotes the concentration giving 50% growth inhibition. Low readings indicate greater sensitivity of the cells, high ones lower sensitivity of the cells. The IC50 is the concentration that inhibits the measured activity by half.
